# Data as given in patent publication US10238631B2, “Sesquiterpene derivatives and their use in inflammation or cancer treatment” (Academia Sinica, priority 2014, dated 2019).
# System: MCF-7 (ER+, Her2−) human breast cancer cells
# Test: MTT cell viability assay, MCF-7 cells
# Assay type: cell-based
# Conditions: MCF7, 24 h, read-out: IC50 on cell viability, MCF-7 (ER+, Her2−)
# Experimental: (§1) Normal or cancer cells (2×10^3 to 1×10^4 cells/well) were seeded in 96-well plate for overnight and treated with different compounds for 24 h to 72 h. Cells growth were determined by MTT-based colorimetric assays according to. Viability of the test cells treated with vehicle (0.5% DMSO) only was defined as 100% viable. Survival of cells after treatment with DETDs was calculated using the following formula: viable cell number (%)=OD570 (treated cell culture)/OD570 (vehicle control)×100.
# (§2) Sixty DETDs were derived from parental compound […] and tested for anti-breast cancer cell activity.
row,SMILES,IC50
1,C=C1C(=O)OC2CC3=C[C@@H](C/C(C)=C/[C@@H](OC(=O)[C@H](OC)c4ccc5ccccc5c4)[C@H]12)OC3=O (stereo partly drawn) [DETD-57],> 7.5 µM
2,C=C1C(=O)OC2CC3=C[C@@H](C/C(C)=C/C(OC(=O)C(C)CCC)[C@H]12)OC3=O (stereo partly drawn) [DETD-20],3.5 µM

# System: A2058 (BRAF mutation)
# Test: MTT cell viability assay, A2058 melanoma
# Assay type: cell-based, human
# Conditions: Homo sapiens, A2058, 24 h
# Experimental: as §1
# (§3) Several genes are involved in melanoma development and pathology; specifically, mutation in V-raf murine sarcoma viral oncogene homolog B1 (B-RAF) occurs approximately 50-60% and in neuroblastoma RAS viral oncogene homolog (N-RAS) occurs about 30% of malignant melanomas. A spectrum of wild-type or mutated melanoma cell lines including B16-F10, MeWo, A375, A2058, HTB-68, and melanocyte were used to study anti-melanoma cell proliferation activity of parental phytocompound DET and newly synthesized DETDs.
row,SMILES,IC50
1,C=C1C(=O)OC2CC3=C[C@@H](C/C(C)=C/[C@@H](OC(=O)[C@H](OC)c4ccc5ccccc5c4)[C@H]12)OC3=O (stereo partly drawn) [DETD-57],8.3 µM
2,C=C1C(=O)OC2CC3=C[C@@H](C/C(C)=C/C(OC(=O)C(C)CCC)[C@H]12)OC3=O (stereo partly drawn) [DETD-20],> 10 µM

# System: B16-F10 (NRAS mutation)
# Test: MTT cell viability assay, B16-F10 melanoma
# Assay type: cell-based
# Conditions: Mus musculus, B16-F10, 24 h, 24 h, read-out: IC50 on cell viability, B16-F10 (NRAS mutation)
# Experimental: as §1, §3
row,SMILES,IC50
1,C=C1C(=O)OC2CC3=C[C@@H](C/C(C)=C/[C@@H](OC(=O)[C@H](OC)c4ccc5ccccc5c4)[C@H]12)OC3=O (stereo partly drawn) [DETD-57],8.1 µM
2,C=C1C(=O)OC2CC3=C[C@@H](C/C(C)=C/C(OC(=O)C(C)CCC)[C@H]12)OC3=O (stereo partly drawn) [DETD-20],9 µM

# System: M10 normal mammary epithelial cells
# Test: MTT cell viability assay, M10 normal cells
# Assay type: cell-based, human
# Conditions: Homo sapiens, Epithelial cell, 24 h
# Experimental: as §1, §2
row,SMILES,IC50
1,C=C1C(=O)OC2CC3=C[C@@H](C/C(C)=C/[C@@H](OC(=O)[C@H](OC)c4ccc5ccccc5c4)[C@H]12)OC3=O (stereo partly drawn) [DETD-57],> 7.5 µM
2,C=C1C(=O)OC2CC3=C[C@@H](C/C(C)=C/C(OC(=O)C(C)CCC)[C@H]12)OC3=O (stereo partly drawn) [DETD-20],> 7.5 µM

# System: MDA-MB-231 (ER−, PR−, Her2−) human breast cancer cells
# Test: MTT cell viability assay, MDA-MB-231 cells
# Assay type: cell-based
# Conditions: Homo sapiens, MDA-MB-231, 24 h, read-out: IC50 on cell viability, MDA-MB-231 (ER−, PR−, Her2−)
# Experimental: as §1, §2
row,SMILES,IC50
1,C=C1C(=O)OC2CC3=C[C@@H](C/C(C)=C/[C@@H](OC(=O)[C@H](OC)c4ccc5ccccc5c4)[C@H]12)OC3=O (stereo partly drawn) [DETD-57],> 15 µM
2,C=C1C(=O)OC2CC3=C[C@@H](C/C(C)=C/C(OC(=O)C(C)CCC)[C@H]12)OC3=O (stereo partly drawn) [DETD-20],5.8 µM

# System: A375 (BRAF mutation)
# Test: MTT cell viability assay, A375 melanoma
# Assay type: cell-based, human
# Conditions: Homo sapiens, A-375, 24 h, 24 h, MTT; read-out: IC50 on cell viability, A375 (BRAF mutation)
# Experimental: as §1, §3
# To investigate whether or not DETD-35 show synergism with PLX4032 against A375 melanoma cells, we performed anti-proliferation assay using MTT reagent to obtain IC50 of each compound. […] The synergistic effect was quantified by combination index (CI) analysis as stated above.
row,SMILES,IC50
1,C=C1C(=O)OC2CC3=C[C@@H](C/C(C)=C/[C@@H](OC(=O)[C@H](OC)c4ccc5ccccc5c4)[C@H]12)OC3=O (stereo partly drawn) [DETD-57],4.2 µM
2,C=C1C(=O)OC2CC3=C[C@@H](C/C(C)=C/C(OC(=O)C(C)CCC)[C@H]12)OC3=O (stereo partly drawn) [DETD-20],> 10 µM

# System: HTB-68 (NRAS mutation)
# Test: MTT cell viability assay, HTB-68 melanoma
# Assay type: cell-based, human
# Conditions: Homo sapiens, 24 h
# Experimental: as §1, §3
row,SMILES,IC50
1,C=C1C(=O)OC2CC3=C[C@@H](C/C(C)=C/[C@@H](OC(=O)[C@H](OC)c4ccc5ccccc5c4)[C@H]12)OC3=O (stereo partly drawn) [DETD-57],8 µM
2,C=C1C(=O)OC2CC3=C[C@@H](C/C(C)=C/C(OC(=O)C(C)CCC)[C@H]12)OC3=O (stereo partly drawn) [DETD-20],> 10 µM

# System: LPS-induced nitric oxide (NO) production in RAW 264.7 cells
# Test: Nitric oxide production in LPS-stimulated macrophages (Griess)
# Assay type: cell-based, mouse
# Conditions: Mus musculus; LPS-stimulated RAW264.7, nitrite 24 h after LPS
# Experimental: (§4) Marcophages (2×10^5 cells/well in 96-well plate) were treated with compounds for 1 h, then incubated further for 24 h with or without the presence of […] LPS in the cultural medium. Nitrite levels in cell culture medium were determined by the Griess reaction method. In parallel to the Griess assays, macrophage cell viabilities were determined using the MTT based colorimetric assay.
# LPS from the outer membrane of Gram-negative bacteria can induce mRNA or protein levels of inducible nitric oxide synthase (iNOS), which catalyzes oxidative deamination of L-arginine to produce nitric oxide (NO). Once NO is predominantly produced, it interacts with superoxide anion and generates highly reactive oxidants resulting in cellular inflammation, DNA, protein and tissue damages, carcinogenesis, and antiapoptosis. We used in vitro LPS stimulated inflammation in RAW264.7 cell system to evaluate the effect of DET and its derivatives DETDs on NO production by determination of nitrite level (equivalent to NO level) in culture medium 24 h after LPS treatment.
row,SMILES,IC50
1,C=C1C(=O)OC2CC3=C[C@@H](C/C(C)=C/[C@@H](OC(=O)[C@H](OC)c4ccc5ccccc5c4)[C@H]12)OC3=O (stereo partly drawn) [DETD-57],> 10 µM
2,C=C1C(=O)OC2CC3=C[C@@H](C/C(C)=C/C(OC(=O)C(C)CCC)[C@H]12)OC3=O (stereo partly drawn) [DETD-20],4.2 µM

# System: Melanocyte (Normal cells)
# Test: MTT cell viability assay, normal melanocytes
# Assay type: cell-based, human
# Conditions: Homo sapiens, Melanocyte, 24 h
# Experimental: as §1, §3
row,SMILES,IC50
1,C=C1C(=O)OC2CC3=C[C@@H](C/C(C)=C/[C@@H](OC(=O)[C@H](OC)c4ccc5ccccc5c4)[C@H]12)OC3=O (stereo partly drawn) [DETD-57],> 10 µM
2,C=C1C(=O)OC2CC3=C[C@@H](C/C(C)=C/C(OC(=O)C(C)CCC)[C@H]12)OC3=O (stereo partly drawn) [DETD-20],> 10 µM

# System: RAW264.7 (normal macrophage)
# Test: MTT cell viability assay, RAW264.7 macrophages
# Assay type: cell-based, mouse
# Conditions: Mus musculus, RAW264.7, 24 h
# Experimental: as §1, §4
row,SMILES,IC50
1,C=C1C(=O)OC2CC3=C[C@@H](C/C(C)=C/[C@@H](OC(=O)[C@H](OC)c4ccc5ccccc5c4)[C@H]12)OC3=O (stereo partly drawn) [DETD-57],> 10 µM
2,C=C1C(=O)OC2CC3=C[C@@H](C/C(C)=C/C(OC(=O)C(C)CCC)[C@H]12)OC3=O (stereo partly drawn) [DETD-20],> 10 µM

# System: MeWo (No NRAS or BRAF mutation)
# Test: MTT cell viability assay, MeWo melanoma
# Assay type: cell-based, human
# Conditions: Homo sapiens, MeWo, 24 h
# Experimental: as §1, §3
row,SMILES,IC50
1,C=C1C(=O)OC2CC3=C[C@@H](C/C(C)=C/[C@@H](OC(=O)[C@H](OC)c4ccc5ccccc5c4)[C@H]12)OC3=O (stereo partly drawn) [DETD-57],> 10 µM
2,C=C1C(=O)OC2CC3=C[C@@H](C/C(C)=C/C(OC(=O)C(C)CCC)[C@H]12)OC3=O (stereo partly drawn) [DETD-20],> 10 µM

# System: TS/A (ER+, Her2−) murine mammary cancer cells
# Test: MTT cell viability assay, TS/A cells
# Assay type: cell-based
# Conditions: Mus musculus, 24 h, read-out: IC50 on cell viability, TS/A (ER+, Her2−)
# Experimental: as §1, §2
row,SMILES,IC50
1,C=C1C(=O)OC2CC3=C[C@@H](C/C(C)=C/[C@@H](OC(=O)[C@H](OC)c4ccc5ccccc5c4)[C@H]12)OC3=O (stereo partly drawn) [DETD-57],> 7500 nM
2,C=C1C(=O)OC2CC3=C[C@@H](C/C(C)=C/C(OC(=O)C(C)CCC)[C@H]12)OC3=O (stereo partly drawn) [DETD-20],2200 nM
